Measurements from PMC9822041 (Molecules, 2022).
Several values for one entry are separate records, joined by “and”; a condition that tells them apart may be missing. Equal values may be shown once. Read-outs that look alike come from different tables or passages of the source.

Experiments:
hDYRK1A = hDYRK1A (Homo sapiens, UniProt Q13627); experiment: DYRK1A Human CMGC Kinase Enzymatic Radiometric Assay [Km ATP]; assay type: biochemical
hCLK1 = hCLK1 (Homo sapiens, UniProt P49759); experiment: CLK1 Human CMGC Kinase Enzymatic Radiometric Assay [Km ATP]; assay type: biochemical
[1] = In vitro DPPH radical scavenging assay; conditions: methanol, 37 °C, 40 min, absorbance at 517 nm
Procedure: Finally, the aptitude of 1p to act as a free radical scavenger was assessed using the rapid, inexpensive and widely used DPPH^• (2,2-diphenyl-1-picrylhydrazyl) scavenging method. Dark purple DPPH^• is a stable free radical that can accept an electron or hydrogen to become a stable diamagnetic molecule with the loss of violet color. […] Thus, this novel class of hDYRK1A/hCLK1 inhibitors are all the more interesting that they may also potentially display an additional antioxidant activity to combat oxidative stress in AD.
Figure 1. In vitro stability of 1p in various non-oxidazing and oxidazing media.
III – In vitro DPPH radical scavenging assay
DPPH radical scavenging activity was determined according to the method described by Blois.5 0.5 mL of 0.1 mM DPPH radical solution in methanol was mixed with 1.5 mL of various concentrations in methanol of 1p. The mixture was then thoroughly vortexed for 5s and each antioxidant-DPPH radical reaction mixture is kept in the test tubes in the dark at 37 °C for 40 min (time point by which all reactions should have reached steady state) and transferred to a cuvette for absorbance measurement at 517 nm. For the baseline control, 1.5 mL of methanol was used. […] Percentage of inhibition was calculated using the equation [(A0−A1)/A0] × 100 where A0 was the absorbance of the control and A1 was the absorbance in the presence of the compound. […]

[2] = In vitro stability/oxidation of 1p to 2p in PBS, NAD+, H2O2 and riboflavin solutions (HPLC-UV); assay type: physicochemical; conditions: 25 μM 1p
in vitro = conditions: PAMPA, pH 7.4
[3] = Solubility of 1p in PBS (HPLC); assay type: physicochemical; conditions: aqueous buffer, kinetic from dmso stock; PBS pH 7.4, 24 h at 20 °C; read-out: Experimental solubility in PBS
CLK1 = system: CLK1; set-up: method as in PMID 20981014, PMID 15010457; conditions: cited from earlier work
DYRK1A = conditions: cited from earlier work
[4] = radiometric assay, Km ATP, read-out: IC50 hDYRK1A
[5] = radiometric assay, Km ATP, read-out: IC50 hCLK1
[6] = compared with N-methyl dihydroquinoline 1h
[7] = quinolinium salt and quinoline intermediates, read-out: IC50 hDYRK1A (synthetic intermediates)
[8] = quinolinium salt and quinoline intermediates, read-out: IC50 hCLK1 (synthetic intermediates)

Chain of hCLK1 (P49759 whole entry): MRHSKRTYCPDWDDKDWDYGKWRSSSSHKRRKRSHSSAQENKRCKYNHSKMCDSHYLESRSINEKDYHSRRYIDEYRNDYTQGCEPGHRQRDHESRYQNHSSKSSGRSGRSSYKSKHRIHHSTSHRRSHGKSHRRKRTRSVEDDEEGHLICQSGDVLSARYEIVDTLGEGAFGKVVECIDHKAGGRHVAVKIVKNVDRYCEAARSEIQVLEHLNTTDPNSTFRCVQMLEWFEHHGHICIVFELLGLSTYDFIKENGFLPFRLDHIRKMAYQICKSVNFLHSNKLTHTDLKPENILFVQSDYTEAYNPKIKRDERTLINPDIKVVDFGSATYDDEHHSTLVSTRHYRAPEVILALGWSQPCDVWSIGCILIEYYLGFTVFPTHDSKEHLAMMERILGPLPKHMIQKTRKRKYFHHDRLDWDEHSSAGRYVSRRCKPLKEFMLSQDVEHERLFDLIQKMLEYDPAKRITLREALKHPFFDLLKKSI

melting point	IC50 (hDYRK1A; [4])	IC50 (hCLK1; [5])	Compound	other results
183 to 184 °C	–	–	CCC[n+]1cc(C(C)=O)cc2ccc(OC)cc21.[Br-]	–
–	> 10 µM	> 10 µM	CC(=O)C1=CN(C)c2ccccc2C1 [Compound 1a, 1-(1-Methyl-1,4-dihydroquinolin-3-yl)ethanone]	–
141 to 142 °C	> 10 µM	> 10 µM	CC(=O)C1=CN(C)c2cc(C(F)(F)F)ccc2C1 [Compound 1b, 1-(1-Methyl-7-(trifluoromethyl)-1,4-dihydroquinolin-3-yl)ethanone]	–
126 to 127 °C	> 10 µM	> 10 µM	CC(=O)C1=CN(C)c2cc(N(C)C)ccc2C1 [Compound 1c, 1-(7-(Dimethylamino)-1-methyl-1,4-dihydroquinolin-3-yl)ethanone]	–
179 to 180 °C	> 10 µM	> 10 µM	CC(=O)C1=CN(C)c2cc(Br)ccc2C1 [Compound 1d, 1-(7-Bromo-1-methyl-1,4-dihydroquinolin-3-yl)ethanone]	–
124 to 125 °C	> 10 µM	> 10 µM	CC(=O)C1=CN(C)c2ccc(Cl)cc2C1 [Compound 1e, 1-(6-Chloro-1-methyl-1,4-dihydroquinolin-3-yl)ethanone]	–
235 to 236 °C	> 10 µM	> 10 µM	COc1cc2c(cc1OC)N(C)C=C(C(C)=O)C2 [Compound 1f, 1-(6,7-Dimethoxy-1-methyl-1,4-dihydroquinolin-3-yl)ethanone]	–
152 to 153 °C	> 10 µM	> 10 µM	CC(=O)C1=CN(C)c2cc3c(cc2C1)OCO3 [Compound 1g, 1-(5-Methyl-5,8-dihydro-[1,3]dioxolo[4,5-g]quinolin-7-yl)ethanone]	–
99 to 100 °C	0.385 ± 0.13 µM	0.377 ± 0.158 µM	COc1ccc2c(c1)N(C)C=C(C(C)=O)C2 [Compound 1h, 1-(7-Methoxy-1-methyl-1,4-dihydroquinolin-3-yl)ethanone]	–
127 to 128 °C	> 10 µM	> 10 µM	COc1ccc2c(c1)N(C)C=C(C#N)C2 [Compound 1i, 7-Methoxy-1-methyl-1,4-dihydroquinoline-3-carbonitrile]	–
95 to 96 °C	> 10 µM	1.46 ± 0.253 µM	COC(=O)C1=CN(C)c2cc(OC)ccc2C1 [Compound 1j, Methyl 7-methoxy-1-methyl-1,4-dihydroquinoline-3-carboxylate]	–
93 to 94 °C	> 10 µM	3.16 ± 0.525 µM	CCOC(=O)C1=CN(C)c2cc(OC)ccc2C1 [Compound 1k, Ethyl 7-methoxy-1-methyl-1,4-dihydroquinoline-3-carboxylate]	–
219 to 220 °C	> 10 µM	> 10 µM	COc1ccc2c(c1)N(C)C=C(C(=O)N(C)C)C2 [Compound 1l, 7-Methoxy-N,N,1-trimethyl-1,4-dihydroquinoline-3-carboxamide]	–
–	> 10 µM	> 10 µM	COc1ccc2c(c1)N(C)C=C(C(=O)N(C)OC)C2 [Compound 1m, N,7-Dimethoxy-N,1-dimethyl-1,4-dihydroquinoline-3-carboxamide]	–
129 to 130 °C	3.02 ± 0.15 µM	0.595 ± 0.063 µM	COc1ccc2c(c1)N(Cc1ccccc1)C=C(C(C)=O)C2 [Compound 1n, 1-(1-Benzyl-7-methoxy-1,4-dihydroquinolin-3-yl)ethanone]	–
92 to 93 °C	1.11 ± 0.203 µM	0.122 ± 0.012 µM	COc1ccc2c(c1)N(CCc1ccccc1)C=C(C(C)=O)C2 [Compound 1o, 1-(7-Methoxy-1-phenethyl-1,4-dihydroquinolin-3-yl)ethanone]	–
98 to 99 °C	0.153 ± 0.044 µM	0.047 ± 0.013 µM	CCCN1C=C(C(C)=O)Cc2ccc(OC)cc21 [Compound 1p, 1-(7-Methoxy-1-propyl-1,4-dihydroquinolin-3-yl)ethanone]	fold more potent than 1h toward hDYRK1A (hDYRK1A; [6]): 2.5 fold; EC50 [1]: 128 µM; fold more potent than 1h toward hCLK1 (hCLK1; [6]): 8 fold; % formed 2p after incubation at 37 °C ([2]; 0.1% H2O2 in PBS, after 3.5 h): 13%; % formed 2p after incubation at 37 °C ([2]; 0.1% H2O2 in PBS, after 24 h): 53%; % formed 2p after incubation at 37 °C ([2]; 0.1% riboflavin in PBS, after 3.5 h (in less than 3.5 h)): 100%; % formed 2p after incubation at 37 °C ([2]; 0.2% NAD+ in PBS, after 3.5 h): 5%; % formed 2p after incubation at 37 °C ([2]; 0.2% NAD+ in PBS, after 24 h): 16%; % formed 2p after incubation at 37 °C ([2]; 2% NAD+ in PBS, after 3.5 h): 24%; % formed 2p after incubation at 37 °C ([2]; 2% NAD+ in PBS, after 24 h): 77%; % formed 2p after incubation at 37 °C ([2]; PBS pH 7.4, after 3.5 h): 3%; % formed 2p after incubation at 37 °C ([2]; PBS pH 7.4, after 24 h): 8%; Papp at 4 h, 100 µM (in vitro): 20 ± 0.9 ×10⁻⁶ cm/s; solubility at 24 h [3]: 600 µM and 147 µg/mL
223 to 224 °C	–	–	COc1ccc2cc(C(C)=O)c[n+](C)c2c1.[I-] [Compound 2h, 3-Acetyl-7-methoxy-1-methylquinolin-1-ium iodide]	IC50 (hDYRK1A; [7]): > 10 µM; IC50 (hCLK1; [8]): > 10 µM
129 to 130 °C	–	–	COc1ccc2cc(C(C)=O)cnc2c1 [Compound 6h, 3-Acetyl-7-methoxyquinoline]	IC50 (hDYRK1A; [7]): > 10 µM; IC50 (hCLK1; [8]): > 10 µM
–	–	–	CCN1/C(=C/C(C)=O)Sc2ccc(O)cc21 [INDY, (Z)-1-(3-Ethyl-5-hydroxy-2(3H)-benzothiazolylidene)-2-propanone]	CLK1 % inhibition (CLK1; at 10 μM): 99%
–	–	–	CCN1/C(=C/C(C)=O)Sc2ccc(OC(C)=O)cc21 [ProINDY]	DYRK1A % inhibition (DYRK1A; at 10 μM): 26.1%
